Measurements published in ChEMBL document CHEMBL2380246, “Structure-activity relationships of hybrid annonaceous acetogenins: powerful growth inhibitory effects of their connecting groups between heterocycle and hydrophobic carbon chain bearing THF ring on human cancer cell lines” (2013).

Tests used:
Format in all cases: functional
A549 = assay: Growth inhibition of human A549 cells after 48 hrs by sulforhodamine B assay; conditions: A549, 48 h
SF-268 = assay: Growth inhibition of human SF268 cells after 48 hrs by sulforhodamine B assay; conditions: SF-268, 48 h
NCI-H226 = assay: Growth inhibition of human NCI-H226 cells after 48 hrs by sulforhodamine B assay; conditions: NCI-H226, 48 h
[1] = Growth inhibition of human MKN1 cells after 48 hrs by sulforhodamine B assay; conditions: MKN-1, 48 h
U-251 = assay: Growth inhibition of human U251 cells after 48 hrs by sulforhodamine B assay; conditions: U-251, 48 h
SNB-75 = assay: Growth inhibition of human SNB75 cells after 48 hrs by sulforhodamine B assay; conditions: SNB-75, 48 h
ACHN = assay: Growth inhibition of human ACHN cells after 48 hrs by sulforhodamine B assay
NCI-H460 = assay: Growth inhibition of human NCI-H460 cells after 48 hrs by sulforhodamine B assay; conditions: NCI-H460, 48 h
DMS-273 = assay: Growth inhibition of human DMS273 cells after 48 hrs by sulforhodamine B assay; conditions: DMS-273, 48 h
[2] = Growth inhibition of human HBC4 cells after 48 hrs by sulforhodamine B assay; conditions: HBC4, 48 h
OVCAR-8 = assay: Growth inhibition of human OVCAR8 cells after 48 hrs by sulforhodamine B assay; conditions: OVCAR-8, 48 h
SF-539 = assay: Growth inhibition of human SF539 cells after 48 hrs by sulforhodamine B assay; conditions: SF-539, 48 h
[3] = Growth inhibition of human HCC2998 cells after 48 hrs by sulforhodamine B assay; conditions: HCC 2998, 48 h
DMS-114 = assay: Growth inhibition of human DMS114 cells after 48 hrs by sulforhodamine B assay; conditions: DMS-114, 48 h
OVCAR-3 = assay: Growth inhibition of human OVCAR3 cells after 48 hrs by sulforhodamine B assay; conditions: OVCAR-3, 48 h
[4] = Growth inhibition of human BSY1 cells after 48 hrs by sulforhodamine B assay; conditions: BSY-1, 48 h
[5] = Growth inhibition of human HBC5 cells after 48 hrs by sulforhodamine B assay; conditions: HBC5, 48 h
PC-3 = assay: Growth inhibition of human PC3 cells after 48 hrs by sulforhodamine B assay; conditions: PC-3, 48 h
SF-295 = assay: Growth inhibition of human SF295 cells after 48 hrs by sulforhodamine B assay; conditions: SF-295, 48 h
HCT-116 = assay: Growth inhibition of human HCT116 cells after 48 hrs by sulforhodamine B assay; conditions: HCT-116, 48 h
SNB-78 = assay: Growth inhibition of human SNB78 cells after 48 hrs by sulforhodamine B assay; conditions: SNB-78, 48 h
MDA-MB-231 = assay: Growth inhibition of human MDA-MB-231 cells after 48 hrs by sulforhodamine B assay; conditions: MDA-MB-231, 48 h
LOX IMVI = assay: Growth inhibition of human LOXIMVI cells after 48 hrs by sulforhodamine B assay
OVCAR-4 = assay: Growth inhibition of human OVCAR4 cells after 48 hrs by sulforhodamine B assay; conditions: OVCAR-4, 48 h
MKN-74 = assay: Growth inhibition of human MKN74 cells after 48 hrs by sulforhodamine B assay; conditions: MKN-74, 48 h
SK-OV-3 = assay: Growth inhibition of human SKOV3 cells after 48 hrs by sulforhodamine B assay; conditions: SK-OV-3, 48 h
DU-145 = assay: Growth inhibition of human DU145 cells after 48 hrs by sulforhodamine B assay; conditions: DU-145, 48 h
OVCAR-5 = assay: Growth inhibition of human OVCAR5 cells after 48 hrs by sulforhodamine B assay; conditions: OVCAR-5, 48 h
KM12 = assay: Growth inhibition of human KM12 cells after 48 hrs by sulforhodamine B assay; conditions: KM12, 48 h
HT-29 = assay: Growth inhibition of human HT-29 cells after 48 hrs by sulforhodamine B assay; conditions: HT-29, 48 h
HCT-15 = assay: Growth inhibition of human HCT15 cells after 48 hrs by sulforhodamine B assay; conditions: HCT-15, 48 h
MKN-45 = assay: Growth inhibition of human MKN45 cells after 48 hrs by sulforhodamine B assay; conditions: MKN-45, 48 h
St-4 = assay: Growth inhibition of human St-4 cells after 48 hrs by sulforhodamine B assay; conditions: St-4, 48 h
[6] = Growth inhibition of human RXF631L cells after 48 hrs by sulforhodamine B assay; conditions: RXF 631, 48 h
MKN-7 = assay: Growth inhibition of human MKN7 cells after 48 hrs by sulforhodamine B assay; conditions: MKN-7, 48 h
NCI-H522 = assay: Growth inhibition of human NCI-H522 cells after 48 hrs by sulforhodamine B assay; conditions: NCI-H522, 48 h
MKN-28 = assay: Growth inhibition of human MKN28 cells after 48 hrs by sulforhodamine B assay; conditions: MKN-28, 48 h
NCI-H23 = assay: Growth inhibition of human NCI-H23 cells after 48 hrs by sulforhodamine B assay; conditions: NCI-H23, 48 h
MCF7 = assay: Growth inhibition of human MCF7 cells after 48 hrs by sulforhodamine B assay; conditions: MCF7, 48 h

| GI50 (A549) | GI50 (NCI-H226) | GI50 (U-251) | GI50 (ACHN) | GI50 (NCI-H460) | GI50 (OVCAR-8) | GI50 (OVCAR-3) | GI50 (PC-3) | GI50 (HCT-116) | SMILES | GI50 (SF-268) | GI50 [1] | GI50 (SNB-75) | GI50 (DMS-273) | GI50 [2] | GI50 (SF-539) | GI50 [3] | GI50 (DMS-114) | GI50 [4] | GI50 [5] | GI50 (SF-295) | further results |
| --- | --- | --- | --- | --- | --- | --- | --- | --- | --- | --- | --- | --- | --- | --- | --- | --- | --- | --- | --- | --- | --- |
| 56.2 µM | 28.2 µM | 69.2 µM | 57.5 µM | 34.7 µM | > 100 µM | > 100 µM | 28.2 µM | 3.98 µM | CCCCCCCCCCCC[C@@H](O)[C@H]1CC[C@H]([C@H](O)CCCCCCCCCCOC(=O)c2ccnn2C)O1 | > 100 µM | 43.7 µM | > 100 µM | 38 µM | 51.3 µM | > 100 µM | 46.8 µM | 0.407 µM | 0.813 µM | 25.7 µM | 30.9 µM | GI50 (MKN-7): 0.617 µM; GI50 (SNB-78): 44.7 µM; GI50 (MDA-MB-231): > 100 µM; GI50 (LOX IMVI): 12.9 µM; GI50 (OVCAR-4): > 100 µM; GI50 (NCI-H522): 6.31 µM; GI50 (MKN-74): 30.9 µM; GI50 (SK-OV-3): > 100 µM; GI50 (DU-145): > 100 µM; GI50 (OVCAR-5): > 100 µM; GI50 (KM12): 20 µM; GI50 (HT-29): 32.4 µM; GI50 (HCT-15): 47.9 µM; GI50 (MKN-28): 2.51 µM; GI50 (NCI-H23): 11 µM; GI50 (MKN-45): > 100 µM; GI50 (MCF7): 22.9 µM; GI50 (St-4): 30.2 µM; GI50 [6]: > 100 µM |
| 8.71 µM | 3.31 µM | 1.51 µM | 3.09 µM | 1.7 µM | 1.58 µM | 1.51 µM | 2.29 µM | 1.1 µM | CCCCCCCCCCCC[C@@H](O)[C@H]1CC[C@H]([C@H](O)CCCCCCCCCCNCc2ccnn2C)O1 | 3.63 µM | 1.41 µM | 2 µM | 1.58 µM | 1.82 µM | 1.58 µM | 1.82 µM | 0.129 µM | 0.339 µM | 2.09 µM | 1.2 µM | GI50 (MKN-7): 0.309 µM; GI50 (SNB-78): 2.09 µM; GI50 (MDA-MB-231): 2.19 µM; GI50 (LOX IMVI): 1.2 µM; GI50 (OVCAR-4): 1.58 µM; GI50 (NCI-H522): 1.29 µM; GI50 (MKN-74): 1.29 µM; GI50 (SK-OV-3): 2.09 µM; GI50 (DU-145): 4.37 µM; GI50 (OVCAR-5): 3.09 µM; GI50 (KM12): 1.41 µM; GI50 (HT-29): 3.02 µM; GI50 (HCT-15): 2 µM; GI50 (MKN-28): 0.501 µM; GI50 (NCI-H23): 0.646 µM; GI50 (MKN-45): 1.82 µM; GI50 (MCF7): 1.7 µM; GI50 (St-4): 1.82 µM; GI50 [6]: 2.4 µM |
| 8.51 µM | 9.77 µM | 10 µM | 11 µM | 5.5 µM | 6.03 µM | 10 µM | 2.19 µM | 0.794 µM | CCCCCCCCCCCC[C@@H](O)[C@H]1CC[C@H]([C@H](O)CCCCCCCCCCN(C)C(=O)c2ccnn2C)O1 | 15.1 µM | 5.5 µM | 15.8 µM | 3.31 µM | 10 µM | 12 µM | 12 µM | 0.0347 µM | 0.501 µM | 3.09 µM | 2 µM | GI50 (MKN-7): 0.0513 µM; GI50 (SNB-78): 12 µM; GI50 (MDA-MB-231): 8.91 µM; GI50 (LOX IMVI): 1.41 µM; GI50 (OVCAR-4): 10 µM; GI50 (NCI-H522): 2.29 µM; GI50 (MKN-74): 1.7 µM; GI50 (SK-OV-3): 15.8 µM; GI50 (DU-145): 12.9 µM; GI50 (OVCAR-5): 14.1 µM; GI50 (KM12): 4.17 µM; GI50 (HT-29): 8.13 µM; GI50 (HCT-15): 10 µM; GI50 (MKN-28): 0.302 µM; GI50 (NCI-H23): 0.24 µM; GI50 (MKN-45): 11 µM; GI50 (MCF7): 5.01 µM; GI50 (St-4): 6.76 µM; GI50 [6]: 11 µM |

| SMILES | GI50 (A549) | GI50 (NCI-H226) | GI50 (U-251) | GI50 (ACHN) | GI50 (NCI-H460) | GI50 (OVCAR-8) | GI50 (OVCAR-3) | GI50 (PC-3) | GI50 (HCT-116) | GI50 (SF-268) | GI50 [1] | GI50 (SNB-75) | GI50 (DMS-273) | GI50 [2] | GI50 (SF-539) | GI50 [3] | GI50 (DMS-114) | GI50 [4] | GI50 [5] | GI50 (SF-295) | further results |
| --- | --- | --- | --- | --- | --- | --- | --- | --- | --- | --- | --- | --- | --- | --- | --- | --- | --- | --- | --- | --- | --- |
| CCCCCCCCCCCC[C@@H](O)[C@H]1CC[C@H]([C@H](O)CCCCCCCCCCCCC2=C[C@H](C)OC2=O)O1 [REL-SOLAMIN] | > 100 µM | > 100 µM | > 100 µM | > 100 µM | > 100 µM | > 100 µM | > 100 µM | > 100 µM | > 100 µM | > 100 µM | > 100 µM | > 100 µM | > 100 µM | > 100 µM | > 100 µM | > 100 µM | 4.27 µM | > 100 µM | > 100 µM | 39.8 µM | GI50 (SNB-78): > 100 µM; GI50 (MDA-MB-231): > 100 µM; GI50 (LOX IMVI): 28.8 µM; GI50 (OVCAR-4): > 100 µM; GI50 (MKN-74): > 100 µM; GI50 (SK-OV-3): > 100 µM; GI50 (DU-145): > 100 µM; GI50 (OVCAR-5): > 100 µM; GI50 (KM12): > 100 µM; GI50 (HT-29): > 100 µM; GI50 (HCT-15): > 100 µM; GI50 (MKN-45): > 100 µM; GI50 (St-4): > 100 µM; GI50 [6]: > 100 µM |
